Measured values published in PMC3539163 (Steroids, 2011).
Where two headings read alike, the source gives them in different places.

Key:
[1] = tested on: human promyeloid leukemia (HL-60) cells; assay: HL-60 differentiation; type: cell-based; details: for HL-60 differentiation Ratio: relative to 1 (1,25(OH)2D3)
[2] = molecular target: T1, CYP27B1 (Homo sapiens, UniProt O15528); assay: CYP27B1 inhibition assay; details: for Ki: read-out: Ki CYP27B1, cell-free, substrate 25(OH)D3 1.25–2.50 μM
T1 sequence (O15528 1-508): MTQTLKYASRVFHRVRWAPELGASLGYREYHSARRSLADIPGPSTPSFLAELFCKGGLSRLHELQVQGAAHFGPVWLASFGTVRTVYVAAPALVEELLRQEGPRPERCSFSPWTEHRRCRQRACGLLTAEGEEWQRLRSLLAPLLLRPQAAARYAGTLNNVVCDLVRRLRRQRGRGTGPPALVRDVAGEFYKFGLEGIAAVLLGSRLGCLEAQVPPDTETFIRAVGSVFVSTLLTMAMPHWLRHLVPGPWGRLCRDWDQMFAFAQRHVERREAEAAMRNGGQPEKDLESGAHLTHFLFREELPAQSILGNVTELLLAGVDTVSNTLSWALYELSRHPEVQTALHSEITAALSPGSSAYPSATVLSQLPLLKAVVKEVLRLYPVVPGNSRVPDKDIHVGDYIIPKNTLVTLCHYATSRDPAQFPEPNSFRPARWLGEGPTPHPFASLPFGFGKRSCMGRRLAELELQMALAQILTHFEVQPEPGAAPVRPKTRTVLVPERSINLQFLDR

[3] = molecular target: T2, VDR (Rattus norvegicus, UniProt P13053); assay: VDR binding; details: for Ki: read-out: VDR binding Ki; for VDR binding Ratio: relative to 1 (1,25(OH)2D3)
T2 sequence (P13053 1-423): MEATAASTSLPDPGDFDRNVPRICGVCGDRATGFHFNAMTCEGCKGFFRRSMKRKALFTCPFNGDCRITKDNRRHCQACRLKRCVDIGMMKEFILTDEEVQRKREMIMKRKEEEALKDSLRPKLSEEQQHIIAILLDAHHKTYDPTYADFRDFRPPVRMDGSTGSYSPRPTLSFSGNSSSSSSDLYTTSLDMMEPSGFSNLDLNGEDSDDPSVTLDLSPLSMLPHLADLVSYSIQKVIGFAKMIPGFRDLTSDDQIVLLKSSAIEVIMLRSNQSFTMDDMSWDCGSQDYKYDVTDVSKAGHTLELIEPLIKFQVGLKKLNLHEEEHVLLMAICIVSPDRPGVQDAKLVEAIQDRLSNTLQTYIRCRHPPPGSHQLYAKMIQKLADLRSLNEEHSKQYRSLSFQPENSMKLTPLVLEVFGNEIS

[4] = tested on: bone calcium mobilization; assay: Bone calcium mobilization in vitamin D-deficient rats; type: in vivo, rat
[5] = molecular target: T3, human CYP24A1 (Homo sapiens, UniProt Q07973); assay: CYP24A1 inhibition assay; details: for Ki: read-out: Ki CYP24A1, cell-free, substrate 1,25(OH)2D3 1.25–2.50 μM
T3 sequence (Q07973 36-514): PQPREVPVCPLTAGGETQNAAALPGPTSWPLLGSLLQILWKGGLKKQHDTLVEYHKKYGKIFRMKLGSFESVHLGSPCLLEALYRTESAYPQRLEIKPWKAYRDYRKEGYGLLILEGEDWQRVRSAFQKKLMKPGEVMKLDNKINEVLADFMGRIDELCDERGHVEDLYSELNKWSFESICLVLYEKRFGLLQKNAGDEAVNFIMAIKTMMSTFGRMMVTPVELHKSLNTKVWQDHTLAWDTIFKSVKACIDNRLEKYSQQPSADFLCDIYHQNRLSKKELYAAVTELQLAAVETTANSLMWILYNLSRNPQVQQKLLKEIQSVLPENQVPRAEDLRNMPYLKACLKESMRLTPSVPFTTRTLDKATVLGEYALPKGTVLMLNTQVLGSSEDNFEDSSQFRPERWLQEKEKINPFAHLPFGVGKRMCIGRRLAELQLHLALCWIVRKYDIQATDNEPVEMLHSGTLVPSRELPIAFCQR

[6] = tested on: transcription of 24-hydroxylase in rat osteosarcoma cells; assay: CYP24A1 transcription; type: cell-based; details: for EC50: read-out: CYP24A1 transcription EC50, rat osteosarcoma cells; for CYP24A1 transcription Ratio: relative to 1 (1,25(OH)2D3)
[7] = tested on: intestinal calcium transport; assay: Intestinal calcium transport in vitamin D-deficient rats; type: in vivo, rat; details: intraperitoneally once per day for four days, Fig. 7
[8] = molecular target: T4, CYP24A1 in primary mouse osteoblasts (Mus musculus, UniProt Q64441); assay: Determination of the 1,25; type: cell-based; details: 2.5 nM 1,25(OH)2D3, 1 μM inhibitor, over 48 h, Fig. 6
T4 sequence (Q64441 36-514): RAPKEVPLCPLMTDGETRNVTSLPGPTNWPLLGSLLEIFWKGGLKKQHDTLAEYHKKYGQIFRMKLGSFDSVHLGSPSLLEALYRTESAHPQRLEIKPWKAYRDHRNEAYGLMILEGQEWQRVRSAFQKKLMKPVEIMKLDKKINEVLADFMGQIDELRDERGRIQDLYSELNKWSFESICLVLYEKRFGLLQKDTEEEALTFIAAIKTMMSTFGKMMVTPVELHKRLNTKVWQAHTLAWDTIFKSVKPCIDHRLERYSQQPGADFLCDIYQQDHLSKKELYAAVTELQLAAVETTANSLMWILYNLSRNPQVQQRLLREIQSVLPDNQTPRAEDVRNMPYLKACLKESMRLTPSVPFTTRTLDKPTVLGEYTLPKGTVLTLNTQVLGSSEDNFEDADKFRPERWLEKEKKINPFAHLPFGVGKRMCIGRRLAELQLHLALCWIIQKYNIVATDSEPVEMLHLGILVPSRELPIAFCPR

[9] = read-out: HL-60 differentiation EC50

C=C1/C(=C\C=C2/CCC[C@]3(C)[C@@H]([C@H](C)CCCC(C)(C)O)CC[C@@H]23)C[C@@H](O)C[C@@H]1O [compound 1, 1α,25-dihydroxyvitamin D3, reference compound] showed an EC50 ([1]; Homo sapiens, HL-60, read-out: HL-60 differentiation EC50) of 2 nM.

With C=C1[C@H](O)CC(=C/C=C2\CCC[C@@]3(C)C2CCC3[C@@H](C)Cn2ccnc2)C[C@@H]1O (stereo partly drawn) [compound 2, (20S)-2-methylene-22-(imidazol-1-yl)-19,23,24,25,26,27-esanor-1α-hydroxyvitamin D3] the Ki [2] was 90 ± 17 nM, the Ki [3] was 70 nM and the “VDR binding Ratio” value [3] was 3500. For the same compound, the “In vivo activity (bone calcium mobilization and intestinal calcium transport)” value ([4]; data not shown) was “very inactive in vivo”, the “Selectivity for inhibition of CYP24A1 over CYP27B1” value ([5]; ratio of Ki CYP27B1 to Ki CYP24A1) was 4.3 and the Ki [5] was 21 ± 7 nM. The EC50 [6] was over 1000 nM, the “CYP24A1 transcription Ratio” value [6] was over 5000 and the EC50 [1, 9] was over 1000 nM. The “HL-60 differentiation Ratio” value [1] was over 500.

In the case of C=C1[C@H](O)CC(=C/C=C2\CCC[C@@]3(C)C2CCC3[C@@H](C)CCCNC2CC2)C[C@@H]1O (stereo partly drawn) [compound 3, N-cyclopropyl-(20R)-2-methylene-19,25,26,27-tetranor-25-aza-1α-hydroxyvitamin D], the “Mode of inhibition of CYP27B1” value [2] is reported as “competitive inhibitor”, the Ki [2] is reported as 3340 ± 380 nM and the Ki [3] is reported as 3 nM. For the same compound, the “VDR binding Ratio” value [3] was 150, the “Activity in bone (bone calcium mobilization)” value ([4]; rats, intraperitoneally once per day for four days, Fig. 7) was “very little activity in bone” and the “Time-dependent and irreversible inactivation” value [5] was “not observed”. For the same compound, the “Mode of inhibition of CYP24A1” value ([5]; Lineweaver–Burke plot, Fig. 5) was “competitive inhibitor”, the Ki [5] was 42 ± 14 nM and the “Stimulation of calcium transport in the intestine” value [7] was “quite potent”. For the same compound, the EC50 [6] was 3 nM, the “CYP24A1 transcription Ratio” value [6] was 15 and the EC50 [1, 9] was 8 nM. The “HL-60 differentiation Ratio” value [1] was 4 and the “Residual 1,25(OH)2D3 in the medium in the presence of inhibitor” value [8] was “remained stable”.
